Results: patent US8569264B2, “Antibacterial 4,5-substituted aminoglycoside analogs having multiple substituents” (ISIS Pharmaceuticals, Inc., priority 2005, dated 2013)
≈ marks a conversion by molar mass, not a printed value.

What was measured:
E. coli ATCC 25922 = test: MIC, E. coli ATCC 25922; type: cell-based; conditions: Escherichia coli
Experimental: (§1) The MIC assays are carried out in 150 μL volume in duplicate in 96-well clear flat-bottom plates. The bacterial suspension from an overnight culture growth in appropriate medium is added to a solution of test compound in 4% DMSO in water. Final bacterial inoculum is approximately 10^5-10^6 CFU/well. […] Both ampicillin and tetracycline are used as antibiotic-positive controls in each screening assay for S. pyogenes, E. coli imp-, E. coli, S. aureus, E. faecalis, K. pneumoniae and P. vulgaris. Ciprofloxacin is used as an antibiotic positive control in each screening assay for P. aeruginosa.
(§2) The following compounds were prepared using methods illustrated in the previous examples. The compounds were also examined in standard bacterial assays against E. Coli, S. Aureus, P. aurginosa, K. pneumoniae, P. vulgaris, and A. baumannii to determine activities. Each of the bacterial cultures that are available from ATCC (www.atcc.org) is identified by its ATCC number. A. baumannii is gentamicin sensitive Acinetobacter baumannii #2 from Walter Reed.

K. pneumoniae ATCC 10031 = test: MIC, K. pneumoniae ATCC 10031; type: cell-based; conditions: Klebsiella pneumoniae
Experimental: as §1, §2

S. aureus ATCC 29213 = test: MIC, S. aureus ATCC 29213; type: cell-based; conditions: Staphylococcus aureus, ATCC29213; Example 112
Experimental: (§3) The MIC assays are carried out in 150 μL volume in duplicate in 96-well clear flat-bottom plates. The bacterial suspension from an overnight culture growth in appropriate medium is added to a solution of test compound in 4% DMSO in water. Final bacterial inoculum is approximately 10^5-10^6 CFU/well. The percent growth of the bacteria in test wells relative to that observed for a well containing no compound is determined by measuring absorbance at 595 nm (A595) after 24 h. The MIC is determined as a range of single compound where the complete inhibition of growth is observed at the higher concentration and cells are viable at the lower concentrations. Both ampicillin and tetracycline are used as antibiotic-positive controls in each screening assay for S. pyogenes, E. coli imp-, E. coli, S. aureus, E. faecalis, K. pneumoniae and P. vulgaris. Ciprofloxacin is used as an antibiotic positive control in each screening assay for P. aeruginosa.
as §2, with “compound was” for “compounds were”, “pneumoniae” for “pneumoniae, P. vulgaris,”, “number.” for “number. A. baumannii is gentamicin sensitive Acinetobacter baumannii #2 from Walter Reed.”

P. aurginosa ATCC 27853 = test: MIC, P. aurginosa ATCC 27853; type: cell-based; conditions: Example 112
Experimental: as §3
as §2, with “compound was” for “compounds were”, “pneumoniae” for “pneumoniae, P. vulgaris,”, “number.” for “number. A. baumannii is gentamicin sensitive Acinetobacter baumannii #2 from Walter Reed.”

A. baumannii ATCC 19606 = test: MIC, A. baumannii ATCC 19606; type: cell-based; conditions: Acinetobacter baumannii, ATCC19606; Example 112
Experimental: as §3
as §2, with “compound was” for “compounds were”, “pneumoniae” for “pneumoniae, P. vulgaris,”, “number.” for “number. A. baumannii is gentamicin sensitive Acinetobacter baumannii #2 from Walter Reed.”

[1] = target: 18S ribosomal subunit RNA target; test: Mass spectrometry based binding assay (FTICR), 18S; conditions: Example 106
Method in brief: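 Ligands at varying concentrations were mixed with 2.5 or 5 μM RNA in 100 mM ammonium acetate with 33% isopropyl alcohol, then analysed by negative-mode ESI-FTICR. Complex/free RNA ion ratios plotted against ligand concentration were fitted to a second- or higher-order binding polynomial to give KD.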

[2] = target: 16S ribosomal subunit RNA target; test: Mass spectrometry based binding assay (FTICR), 16S; conditions: Example 106
Method in brief: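 Binding to the 16S ribosomal subunit RNA target was measured by FTICR mass spectrometry. Ligands or ligand mixtures were prepared at several concentrations in 10 μL of aqueous 100 mM ammonium acetate buffer with 33% isopropyl alcohol. Samples were infused at 1 μL/min into a negative-mode electrospray source, and ions were held 1 sec in an RF-only hexapole. Complex/free RNA ratios versus ligand concentration were fitted to a binding polynomial to obtain KD.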

[3] = tested on: E. coli S30 bacterial extract (pBestLuc firefly luciferase reporter); test: Coupled bacterial transcription/translation assay; type: biochemical; conditions: Example 106; read-out: Trans/Trans IC50
Method in brief: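 Coupled transcription/translation of firefly luciferase from 1 μg pBestLuc (tac promoter) in E. coli S30 extract, with or without test compound. Reaction 35 min at 37° C., then functional luciferase detected by luminescence.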

E. Coli = test: MIC, E. Coli; type: cell-based; conditions: Escherichia coli; Example 106
Method in brief: (§4)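 Broth microdilution in duplicate, 150 μL: overnight-culture bacteria were added to compound in 4% DMSO in water. Final inoculum was about 10^5–10^6 CFU/well.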

S. Aureus = test: MIC, S. Aureus; type: cell-based; conditions: Staphylococcus aureus; Example 106
Method in brief: as §4

S. aureus ATCC 13709 = test: MIC, S. aureus ATCC 13709; type: cell-based; conditions: Staphylococcus aureus, ATCC13709, Example 111
Experimental: as §1, §2

P. aurginosa ATCC 25416 = test: MIC, P. aurginosa ATCC 25416; type: cell-based; conditions: Example 111
Experimental: as §1, §2

P. aurginosa ATCC 29248 = test: MIC, P. aurginosa ATCC 29248; type: cell-based; conditions: Example 111
Experimental: as §1, §2

P. vulgaris ATCC 8427 = test: MIC, P. vulgaris ATCC 8427; type: cell-based; conditions: Proteus vulgaris, ATCC8427, Example 111
Experimental: as §1, §2

[4] = tested on: gentamicin sensitive Acinetobacter baumannii #2 from Walter Reed; test: MIC, A. baumannii WReed 2; type: cell-based; conditions: Acinetobacter baumannii, Example 111
Experimental: as §1, §2

[5] = tested on: Staphylococcus aureus (Smith Strain ATCC 13709); test: Staphylococcus aureus mouse protection assay; type: in vivo, mice; conditions: Staph Conc. 10^6, 10% Mucin, the 13th table

With NCC[C@H](O)C(=O)N[C@@H]1C[C@H](N)[C@@H](O[C@H]2O[C@H](CN)CC[C@H]2N)[C@H](O[C@@H]2O[C@H](CO)[C@@H](O[C@H]3O[C@@H](CN)[C@@H](O)[C@H](O)[C@H]3N)[C@H]2OCCNCCc2ccccc2)[C@H]1O [Compound 87, N-1-haba-2″-O-phenylethylaminoethyl-3′,4′-dideoxy neomycin] the MIC (E. coli ATCC 25922; ATCC25922, Example 112) was < 16 µM, the MIC (K. pneumoniae ATCC 10031; ATCC10031, Example 112) was < 16 µM and the MIC (S. aureus ATCC 29213) was < 16 µM. For the same compound, the MIC (P. aurginosa ATCC 27853) was < 16 µM and the MIC (A. baumannii ATCC 19606) was < 16 µM.
For NC[C@@H]1O[C@H](O[C@H]2[C@@H](O)[C@H](O[C@@H]3[C@@H](O)[C@H](N)C[C@H](N)[C@H]3O[C@H]3O[C@H](CO)[C@@H](O)[C@H](O)[C@H]3N)O[C@@H]2CO)[C@H](N)[C@@H](O)[C@@H]1O [paromomycin, reference compound], the Kd [1] was 4800 nM, the Kd [2] was 600 nM and the IC50 [3] was 100 nM. It also gave an MIC (E. Coli) of 20 to 40 µM (≈ 12.3 to 24.6 µg/mL), an MIC (S. Aureus) of 3 to 5 µM (≈ 1.85 to 3.08 µg/mL) and an MIC (E. coli ATCC 25922; ATCC25922, Example 111) of 5 to 10 µM (≈ 3.08 to 6.16 µg/mL). The MIC (S. aureus ATCC 13709) was 10 to 20 µM (≈ 6.16 to 12.3 µg/mL), the MIC (P. aurginosa ATCC 25416) was > 40 µM and the MIC (P. aurginosa ATCC 29248) was > 40 µM. The MIC (K. pneumoniae ATCC 10031; ATCC10031, Example 111) was 0.6 to 1.3 µM (≈ 0.369 to 0.8 µg/mL), the MIC (P. vulgaris ATCC 8427) was > 40 µM and the MIC [4] was 2.5 to 5 µM (≈ 1.54 to 3.08 µg/mL). For the same compound, the “# Dead mice/Total mice in group” value ([5]; 0.5 mg/kg subcutaneously) was 10/10, the “# Dead mice/Total mice in group” value ([5]; 1 mg/kg subcutaneously) was 10/10 and the “# Dead mice/Total mice in group” value ([5]; 2 mg/kg subcutaneously) was 9/10.
